Like-named read-outs stand apart in the source and are kept apart here.
Key:
allergy = conditions: background statement, cited from earlier work
[1] = system: type IV allergy (afferent phase), mouse contact-type dermatitis in auricles; test: Type IV allergy (afferent phase), DNFB contact-type dermatitis in auricles, oral administration; type: in vivo, Male C57BL/6J mice; conditions: 30 mg/kg, 1 hr before sensitization, vs distilled water, n = 7-9
Protocol: The present compound was assessed for its effect on type IV allergy (afferent phase) through oral administrations, using a DNFB contact-type dermatitis model.
(§1) Male C57BL/6J mice purchased from Clea Japan, Inc. were used.
The test compounds were orally administered to the mice. One hr later, sensitization was performed by applying 30 μl of 0.5% DNFB acetone solution. Five days after the sensitization procedure, 10 μl of 0.1% DNFB dissolved in acetone was applied to their right auricles to induce contact-type dermatitis. Then, 24 hrs later, the thickness of the auricles was measured and the rate of edema calculated.

[2] = system: type IV allergy (efferent phase), mouse contact-type dermatitis in auricles; test: Type IV allergy (efferent phase), DNFB contact-type dermatitis in auricles; type: in vivo, Male C57BL/6J mice; conditions: n = 9-11, 1 hr before induction
Protocol: The present compound was assessed for its effect on type IV allergy (efferent phase) through oral and topical administrations, using a DNFB contact-type dermatitis model.
as §1
The mice which had their abdominal hair removed on the previous day were sensitized by applying to them on a 1-cm^2 area of their abdominal surface 25 μl of 0.5% dinitrofluorobenzene (DNFB) dissolved in acetone, under anesthesia with ketamine hydrochloride: xylazine hydrochloride (9:1). Five days after the sensitization procedure, 10 μl of 0.1% DNFB dissolved in acetone was applied to the outer side of their right auricles to induce infammation. Twenty-four hrs after the induction of inflammation, the thickness of the auricles was measured with a dial thickness gauge (manufactured by Ozaki Seisakusho) and the rate of edema calculated by comparing it with pre-induction thickness.
The test compounds were administered either orally or by topically applying 15 μl of its solution onto the outer side of the auricles, 1 hr before the induction.

[3] = system: rat type I allergy (PCA reaction); test: Rat type I allergy: passive anaphylaxis (PCA) reaction, oral administration; type: in vivo, Male Wistar rats; conditions: 100 mg/5 ml/kg oral, 60 min before PCA provocation; for Optical density: 625 nm, mean ± standard deviation, n = 5-6; for Inhibition rate (%): vs CMC-Na
Protocol: The present compound was assessed for its effect on type I allergy through oral administration.
The compound of Example 1 100 mg/5 ml/kg
Male Wistar rats purchased from SLC Japan were used in the test.
The rats were intracutaneously injected in the back with 100 μl of antiserum (16-fold dilution) under pentobarbital anesthesia. Forty-eight hrs later, the animals were injected with 5 ml/kg of a mixture of ovalbumin (25 mg/kg) and Evans blue (12.5 mg/kg) to provoke passive anaphylaxis (PCA) reaction.
The rats were sacrificed 30 min after the provocation of PCA reaction and dye-infiltrated region of their back skin was cut out, the dye extracted with 5 ml of formamide and its optical density measured (625 nm).
Each of the test compounds was orally administered 60 min before the provocation of PCA reaction.

[4] = Table 4, topically applied (as titled), concentration 0.5%, vs CMC-Na
[5] = topical, concentration 0.2%, vs methanol
[6] = topical, concentration 0.5%, vs methanol

For `O=C(O)/C=C/c1c[nH]cn1` [urocanic acid, Urocanic acid], the “effect on delayed allergy” value (allergy; listed as Urocanic acid) is given as “suppressive effect on delayed allergy” and the “effect on delayed allergy” value (allergy) is given as “by no means satisfactory”.

In the case of `O=C(O)C=Cc1cn(CCN2CCN(C(c3ccccc3)c3ccccc3)CC2)cn1` [Example 2, 1-(Diphenylmethylpiperazinylethyl)urocanic Acid], the “Inhibition rate (%)” value [1] is reported as 56.2%.

With `COC(=O)C=Cc1cn(-c2nccs2)cn1` [Example 9, 1-(2,5-Thiazolyl)urocanic Acid Methyl Ester] the “Inhibition rate (%)” value [2, 4] was 89.9%.

With `COC(=O)C=Cc1cn(CCN2CCN(C(c3ccccc3)c3ccccc3)CC2)cn1` [Example 1, 1-(Diphenylmethylpiperazinylethyl)urocanic Acid Methyl Ester] the Optical density [3] was 0.413 ± 0.051, the “Inhibition rate (%)” value [3] was 28.7% and the “Inhibition rate (%)” value [2, 5] was 73.5%. For the same molecule, the “Inhibition rate (%)” value [2, 6] was 83.9% and the “Inhibition rate (%)” value [1] was 47.8%.

For `COC(=O)C=Cc1cn(-c2ccc(N)cc2)cn1` [Example 5, 1-(4-Aminophenyl)urocanic Acid Methyl Ester], the “Inhibition rate (%)” value [2, 5] was 99.9%.

In the case of `COC(=O)C=Cc1cn(CC=Cc2ccccc2)cn1` [Example 17, 1-(3-Phenyl-2-propenyl)urocanic Acid Methyl Ester], the “Inhibition rate (%)” value [2, 4] is reported as 70.5%.

In the case of `COC(=O)C=Cc1cn(CCN2CCN(C(c3ccccc3)c3ccccn3)CC2)cn1` (stereo not shown) [Example 3, 1-[Phenyl(2-pyridyl)methylpiperazinylethyl]urocanic Acid Methyl Ester], the Optical density [3] is reported as 0.409 ± 0.033, the “Inhibition rate (%)” value [3] is reported as 29.2% and the “Inhibition rate (%)” value [2, 5] is reported as 47.5%. For the same molecule, the “Inhibition rate (%)” value [2, 6] was 79.2% and the “Inhibition rate (%)” value [1] was 49.5%.

From US6310067A, “Urocanic acid derivatives” (Senju Pharmaceutical Co., Ltd., priority 1998, dated 2001)
